{"source": "paper PMC9045272", "about": "“Quorum-Sensing Master Regulator VfmE Is a c-di-GMP Effector That Controls Pectate Lyase Production in the Phytopathogen Dickeya dadantii” (Microbiology Spectrum, 2022)", "key": {"VfmE": {"target": "T1, VfmE (Dickeya dadantii, UniProt E0SMH0)", "T1 construct": "full length, N-terminal 6xHis-MBP fusion (pMAL-c6T) kept, expressed in E. coli NEBExpress, soluble lysate coated on plate", "T1 sequence (E0SMH0 entry or part of it)": "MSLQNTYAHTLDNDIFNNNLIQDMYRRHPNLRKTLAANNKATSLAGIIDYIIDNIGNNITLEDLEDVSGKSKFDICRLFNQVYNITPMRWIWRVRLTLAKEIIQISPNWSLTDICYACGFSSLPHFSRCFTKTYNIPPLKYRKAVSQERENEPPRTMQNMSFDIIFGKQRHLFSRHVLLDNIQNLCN", "test": "ELISA with biotinylated c-di-GMP, competed by unlabelled c-di-GMP", "format": "binding", "conditions": "labelled compound (25 nM biotinylated c-di-GMP, Biolog); competition with 10 uL of 250 nM unlabelled c-di-GMP; PBS pH 7.4, room temperature; plate coated with lysate protein"}, "YcgR from D. dadantii": {"target": "T2, YcgR from D. dadantii (Dickeya dadantii, UniProt E0SAQ7)", "T2 construct": "6xHis-tagged, recombinant, soluble lysate coated on plate", "T2 sequence (E0SAQ7 entry or part of it)": "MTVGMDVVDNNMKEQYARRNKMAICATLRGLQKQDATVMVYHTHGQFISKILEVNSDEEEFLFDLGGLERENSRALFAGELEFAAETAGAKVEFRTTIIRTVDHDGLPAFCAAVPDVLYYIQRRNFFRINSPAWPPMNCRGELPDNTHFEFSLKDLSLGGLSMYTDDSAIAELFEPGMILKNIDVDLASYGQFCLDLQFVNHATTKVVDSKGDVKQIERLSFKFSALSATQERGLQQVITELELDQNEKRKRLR", "test": "ELISA with biotinylated c-di-GMP, competed by unlabelled c-di-GMP", "format": "binding", "conditions": "labelled compound (25 nM biotinylated c-di-GMP, Biolog); competition with 10 uL of 250 nM unlabelled c-di-GMP; PBS pH 7.4, room temperature; plate coated with lysate protein; positive control protein"}}}
{"smiles": "Nc1nc2c(ncn2[C@@H]2O[C@@H]3COP(=O)(O)O[C@H]4[C@@H](O)[C@H](n5cnc6c(=O)[nH]c(N)nc65)O[C@@H]4COP(=O)(O)O[C@H]3[C@H]2O)c(=O)[nH]1", "note": "[c-di-GMP]", "values": [{"measurement": "ELISA with biotinylated c-di-GMP, competed by unlabelled c-di-GMP", "setting": "VfmE", "result": "VfmE binds c-di-GMP with specificity comparable to that of a known c-di-GMP effector, YcgR"}, {"measurement": "ELISA with biotinylated c-di-GMP, competed by unlabelled c-di-GMP", "setting": "YcgR from D. dadantii", "result": "We observed a reduced absorbance in both VfmE- and YcgR-treated wells"}]}
